# In ChEMBL document CHEMBL3108758, “Design, synthesis, and biological evaluation of potent and selective class IIa histone deacetylase (HDAC) inhibitors as a potential therapy for Huntington's disease” (J Med Chem, 2013):
# Legend:
# [1] = Volume of distribution at steady state in C57BL/6JO1aHsd mouse at 5 mg/kg, iv; type: ADME, organism-based; parameters: dose 5 mg/kg, route intravenous; settings: in vivo, read-out: Vdss
# [2] = Tmax in C57BL/6JO1aHsd mouse brain at 10 mg/kg, po; type: ADME, organism-based; parameters: dose 10 mg/kg, route oral
# Muscle tissue [3] = test: Dose normalized AUC in C57BL/6JO1aHsd mouse muscle at 10 mg/kg, po; type: ADME, organism-based; parameters: dose 10 mg/kg, route oral; settings: in vivo
# [4] = Tmax in C57BL/6JO1aHsd mouse muscle at 10 mg/kg, po; type: ADME, organism-based, Muscle tissue; parameters: dose 10 mg/kg, route oral
# [5] = Tmax in C57BL/6JO1aHsd mouse plasma at 10 mg/kg, po; type: ADME, organism-based; parameters: dose 10 mg/kg, route oral
# Plasma [6] = test: Dose normalized AUC in C57BL/6JO1aHsd mouse plasma at 10 mg/kg, po; type: ADME, organism-based; parameters: dose 10 mg/kg, route oral; settings: in vivo
# Plasma [7] = test: Cmax in C57BL/6JO1aHsd mouse plasma at 10 mg/kg, po; type: ADME, organism-based; parameters: dose 10 mg/kg, route oral; settings: in vivo
# Brain [8] = test: Cmax in C57BL/6JO1aHsd mouse brain at 10 mg/kg, po; type: ADME, organism-based; parameters: dose 10 mg/kg, route oral; settings: in vivo
# [9] = Oral bioavailability in C57BL/6JO1aHsd mouse at 10 mg/kg; type: ADME, organism-based; settings: in vivo
# Brain [10] = test: Dose normalized AUC in C57BL/6JO1aHsd mouse brain at 10 mg/kg, po; type: ADME, organism-based; parameters: dose 10 mg/kg, route oral; settings: in vivo
# Muscle tissue [11] = test: Cmax in C57BL/6JO1aHsd mouse muscle at 10 mg/kg, po; type: ADME, organism-based; parameters: dose 10 mg/kg, route oral; settings: in vivo
# [12] = Ratio of drug uptake from muscle to plasma in C57BL/6JO1aHsd mouse at 10 mg/kg, po; type: ADME, organism-based; parameters: dose 10 mg/kg, route oral
# [13] = Ratio of drug uptake from brain to plasma in C57BL/6JO1aHsd mouse at 10 mg/kg, po; type: ADME, organism-based; parameters: dose 10 mg/kg, route oral; settings: read-out: BPR
Structure (SMILES),Vd [1],Tmax [2],AUC/dose (Muscle tissue [3]),Tmax [4],Tmax [5],AUC/dose (Plasma [6]),Cmax normalised (Plasma [7]),Cmax normalised (Brain [8]),bioavailability [9],AUC/dose (Brain [10]),Cmax normalised (Muscle tissue [11]),Kp [12],Kp [13]
O=C(NO)[C@@H]1[C@H](c2ccccc2)[C@H]1c1ccc2c(c1)CN(CC(F)(F)F)C2=O,4.6 L/kg,30 min,1000 nM·kg·h/mg,60 min,30 min,1100 nM·kg·h/mg,280 nM·kg/mg,5.7 nM·kg/mg,62%,17 nM·kg·h/mg,160 nM·kg/mg,–,–
O=C(NO)[C@@H]1[C@H](c2ccccc2)[C@H]1c1ccc(-c2cnc(C3CC3)o2)cc1,1.6 L/kg,60 min,1000 nM·kg·h/mg,60 min,30 min,1500 nM·kg·h/mg,810 nM·kg/mg,200 nM·kg/mg,73%,390 nM·kg·h/mg,420 nM·kg/mg,0.4,0.3
O=C(NO)[C@@H]1[C@H](c2ccccc2)[C@H]1c1ccc(-c2cnco2)cc1,0.74 L/kg,30 min,810 nM·kg·h/mg,30 min,30 min,1300 nM·kg·h/mg,1200 nM·kg/mg,670 nM·kg/mg,84%,700 nM·kg·h/mg,730 nM·kg/mg,–,–
